# In ChEMBL document CHEMBL5113417, “Discovery of 4-(3-aminopyrrolidinyl)-3-aryl-5-(benzimidazol-2-yl)-pyridines as potent and selective SST5 agonists for the treatment of congenital hyperinsulinism” (Bioorg Med Chem Lett, 2022):
# How the values were obtained:
# [1] = target: Somatostatin receptor type 5 (Homo sapiens, UniProt P35346); experiment: Agonist activity at human SST5 expressed in CHO-K1 cells assessed as reduction in NKH477-induced intracellular cAMP level; type: functional, cell-based
# Somatostatin receptor type 5 (Homo sapiens, UniProt P35346), sequence (P35346 whole entry): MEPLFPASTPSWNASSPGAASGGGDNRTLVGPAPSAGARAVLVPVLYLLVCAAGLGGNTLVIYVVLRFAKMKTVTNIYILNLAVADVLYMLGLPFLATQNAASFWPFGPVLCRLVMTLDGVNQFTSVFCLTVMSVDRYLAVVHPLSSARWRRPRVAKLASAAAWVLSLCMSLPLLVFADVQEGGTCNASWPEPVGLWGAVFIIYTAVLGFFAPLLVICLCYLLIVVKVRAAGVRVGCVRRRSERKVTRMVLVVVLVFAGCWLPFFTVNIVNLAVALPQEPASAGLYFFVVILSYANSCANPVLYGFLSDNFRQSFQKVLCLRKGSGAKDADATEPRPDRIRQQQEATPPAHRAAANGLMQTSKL
# [2] = target: Somatostatin receptor type 2 (Homo sapiens, UniProt P30874); experiment: Agonist activity at human SST2; type: functional
# Somatostatin receptor type 2, sequence (P30874 whole entry): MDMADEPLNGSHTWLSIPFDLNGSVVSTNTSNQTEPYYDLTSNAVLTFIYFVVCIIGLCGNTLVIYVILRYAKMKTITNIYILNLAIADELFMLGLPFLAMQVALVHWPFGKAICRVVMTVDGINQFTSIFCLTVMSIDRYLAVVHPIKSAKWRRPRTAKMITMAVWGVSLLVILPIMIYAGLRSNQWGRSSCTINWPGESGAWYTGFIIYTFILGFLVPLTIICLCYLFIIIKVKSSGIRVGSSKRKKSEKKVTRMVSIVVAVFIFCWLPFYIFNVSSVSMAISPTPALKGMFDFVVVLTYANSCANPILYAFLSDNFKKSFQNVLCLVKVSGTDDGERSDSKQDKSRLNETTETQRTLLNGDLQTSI
# Cytochrome P450 3A4 [3] = target: T1, Cytochrome P450 3A4 (Homo sapiens, UniProt P08684); experiment: Inhibition of CYP3A4 (unknown origin); type: ADME
# T1 sequence (P08684 whole entry): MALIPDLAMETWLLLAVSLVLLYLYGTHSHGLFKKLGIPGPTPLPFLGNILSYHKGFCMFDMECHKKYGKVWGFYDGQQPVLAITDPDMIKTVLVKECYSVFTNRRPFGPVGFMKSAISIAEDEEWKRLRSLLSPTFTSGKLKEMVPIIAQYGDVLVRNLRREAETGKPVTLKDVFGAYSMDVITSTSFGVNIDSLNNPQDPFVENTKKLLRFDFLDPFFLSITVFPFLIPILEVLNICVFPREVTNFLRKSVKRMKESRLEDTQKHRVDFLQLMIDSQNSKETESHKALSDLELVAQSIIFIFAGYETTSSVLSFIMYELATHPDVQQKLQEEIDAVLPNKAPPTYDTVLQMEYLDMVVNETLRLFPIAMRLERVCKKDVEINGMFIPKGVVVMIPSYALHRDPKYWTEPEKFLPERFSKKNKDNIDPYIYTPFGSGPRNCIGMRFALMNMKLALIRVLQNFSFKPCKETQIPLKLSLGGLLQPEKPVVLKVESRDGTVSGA
# Cytochrome P450 2D6 [4] = target: T2, Cytochrome P450 2D6 (Homo sapiens, UniProt P10635); experiment: Inhibition of CYP2D6 (unknown origin); type: ADME
# T2 sequence (P10635 whole entry): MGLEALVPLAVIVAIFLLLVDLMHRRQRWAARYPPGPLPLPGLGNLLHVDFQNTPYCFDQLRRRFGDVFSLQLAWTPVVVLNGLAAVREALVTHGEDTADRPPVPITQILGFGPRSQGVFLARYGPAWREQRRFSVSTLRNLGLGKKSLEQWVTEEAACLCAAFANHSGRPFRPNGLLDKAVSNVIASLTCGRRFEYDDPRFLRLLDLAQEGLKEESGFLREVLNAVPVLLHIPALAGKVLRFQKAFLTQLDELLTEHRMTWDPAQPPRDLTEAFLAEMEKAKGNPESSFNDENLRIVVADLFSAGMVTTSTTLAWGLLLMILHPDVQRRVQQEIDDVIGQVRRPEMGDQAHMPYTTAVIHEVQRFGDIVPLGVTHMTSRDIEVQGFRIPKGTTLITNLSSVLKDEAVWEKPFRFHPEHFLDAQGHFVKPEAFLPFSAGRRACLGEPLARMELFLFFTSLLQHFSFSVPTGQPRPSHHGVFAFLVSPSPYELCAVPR
# Cytochrome P450 3A4 [5] = target: T1, Cytochrome P450 3A4; experiment: Inhibition of CYP3A4 (unknown origin) preincubated for 30 mins; type: ADME
# [6] = target: Somatostatin receptor type 4 (Homo sapiens, UniProt P31391); experiment: Agonist activity at human SST4; type: functional
# Somatostatin receptor type 4, sequence (P31391 whole entry): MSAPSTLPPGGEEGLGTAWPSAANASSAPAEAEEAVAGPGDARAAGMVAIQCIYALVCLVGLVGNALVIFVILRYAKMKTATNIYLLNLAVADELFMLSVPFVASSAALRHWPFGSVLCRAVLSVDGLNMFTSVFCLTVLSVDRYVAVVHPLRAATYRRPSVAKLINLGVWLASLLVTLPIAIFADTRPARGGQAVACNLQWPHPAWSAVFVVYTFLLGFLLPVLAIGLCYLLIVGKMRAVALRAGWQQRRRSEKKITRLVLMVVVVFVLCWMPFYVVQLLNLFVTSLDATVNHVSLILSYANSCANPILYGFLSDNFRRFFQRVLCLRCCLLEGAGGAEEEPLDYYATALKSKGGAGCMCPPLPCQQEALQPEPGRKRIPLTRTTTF
# [7] = target: Voltage-gated inwardly rectifying potassium channel KCNH2 (Homo sapiens, UniProt Q12809); experiment: Inhibition of hERG by patch clamp assay; type: toxicity
# Voltage-gated inwardly rectifying potassium channel KCNH2, sequence (Q12809 whole entry): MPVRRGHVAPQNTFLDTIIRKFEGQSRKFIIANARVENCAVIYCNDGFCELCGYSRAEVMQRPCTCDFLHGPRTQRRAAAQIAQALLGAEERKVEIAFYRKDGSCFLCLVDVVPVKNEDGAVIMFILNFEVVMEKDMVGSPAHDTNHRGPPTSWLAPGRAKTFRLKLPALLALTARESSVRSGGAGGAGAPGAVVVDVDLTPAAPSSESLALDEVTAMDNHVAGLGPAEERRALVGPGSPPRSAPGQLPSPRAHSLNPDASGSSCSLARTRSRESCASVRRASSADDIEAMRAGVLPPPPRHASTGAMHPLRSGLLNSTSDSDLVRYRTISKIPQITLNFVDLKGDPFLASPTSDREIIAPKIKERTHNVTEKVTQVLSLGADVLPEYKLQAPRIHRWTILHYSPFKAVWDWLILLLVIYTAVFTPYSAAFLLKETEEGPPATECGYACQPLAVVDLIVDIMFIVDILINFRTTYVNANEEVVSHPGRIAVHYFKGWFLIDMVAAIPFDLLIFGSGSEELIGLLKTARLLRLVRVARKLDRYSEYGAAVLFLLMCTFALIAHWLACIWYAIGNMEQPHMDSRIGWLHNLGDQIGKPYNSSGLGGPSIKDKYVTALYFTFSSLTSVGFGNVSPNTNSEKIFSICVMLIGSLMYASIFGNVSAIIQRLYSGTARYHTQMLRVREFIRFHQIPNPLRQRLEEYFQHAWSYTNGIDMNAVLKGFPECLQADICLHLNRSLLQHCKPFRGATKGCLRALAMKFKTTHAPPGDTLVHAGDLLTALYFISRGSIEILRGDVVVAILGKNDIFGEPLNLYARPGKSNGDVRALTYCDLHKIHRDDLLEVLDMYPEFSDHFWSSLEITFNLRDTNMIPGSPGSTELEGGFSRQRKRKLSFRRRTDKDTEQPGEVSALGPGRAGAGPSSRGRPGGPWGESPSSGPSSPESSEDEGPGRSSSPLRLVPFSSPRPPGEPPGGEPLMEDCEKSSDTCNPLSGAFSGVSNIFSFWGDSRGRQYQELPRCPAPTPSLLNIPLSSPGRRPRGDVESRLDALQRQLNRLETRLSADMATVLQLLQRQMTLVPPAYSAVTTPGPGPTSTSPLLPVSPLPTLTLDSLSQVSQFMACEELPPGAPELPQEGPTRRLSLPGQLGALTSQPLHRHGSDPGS
# [8] = target: Somatostatin receptor type 1 (Homo sapiens, UniProt P30872); experiment: Agonist activity at human SST1; type: functional
# Somatostatin receptor type 1, sequence (P30872 whole entry): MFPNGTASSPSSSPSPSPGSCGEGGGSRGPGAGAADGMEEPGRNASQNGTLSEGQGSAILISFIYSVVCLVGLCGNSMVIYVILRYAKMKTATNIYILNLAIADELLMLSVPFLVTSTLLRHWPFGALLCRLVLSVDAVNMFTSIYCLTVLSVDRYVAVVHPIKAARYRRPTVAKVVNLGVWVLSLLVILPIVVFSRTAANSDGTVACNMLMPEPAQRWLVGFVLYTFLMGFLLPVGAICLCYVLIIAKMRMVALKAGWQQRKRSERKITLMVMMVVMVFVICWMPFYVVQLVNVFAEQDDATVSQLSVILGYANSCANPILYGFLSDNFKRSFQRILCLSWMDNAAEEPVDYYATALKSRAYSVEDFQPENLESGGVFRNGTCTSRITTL
# [9] = target: Somatostatin receptor type 5 (Rattus norvegicus, UniProt P30938); experiment: Agonist activity at rat SST5; type: functional
# Somatostatin receptor type 5 (Rattus norvegicus, UniProt P30938), sequence (P30938 whole entry, looked up): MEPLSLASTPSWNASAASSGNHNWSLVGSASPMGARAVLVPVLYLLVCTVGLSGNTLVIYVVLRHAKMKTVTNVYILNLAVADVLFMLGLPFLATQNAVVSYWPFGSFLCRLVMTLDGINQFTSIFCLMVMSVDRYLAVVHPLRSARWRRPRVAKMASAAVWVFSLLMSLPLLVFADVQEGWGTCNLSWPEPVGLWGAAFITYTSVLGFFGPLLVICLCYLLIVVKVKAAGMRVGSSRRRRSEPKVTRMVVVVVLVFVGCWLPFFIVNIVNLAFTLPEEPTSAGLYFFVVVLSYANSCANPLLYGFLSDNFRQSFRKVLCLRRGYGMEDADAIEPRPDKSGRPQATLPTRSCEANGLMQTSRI
# [10] = target: Somatostatin receptor type 3 (Homo sapiens, UniProt P32745); experiment: Agonist activity at human SST3; type: functional
# Somatostatin receptor type 3, sequence (P32745 whole entry): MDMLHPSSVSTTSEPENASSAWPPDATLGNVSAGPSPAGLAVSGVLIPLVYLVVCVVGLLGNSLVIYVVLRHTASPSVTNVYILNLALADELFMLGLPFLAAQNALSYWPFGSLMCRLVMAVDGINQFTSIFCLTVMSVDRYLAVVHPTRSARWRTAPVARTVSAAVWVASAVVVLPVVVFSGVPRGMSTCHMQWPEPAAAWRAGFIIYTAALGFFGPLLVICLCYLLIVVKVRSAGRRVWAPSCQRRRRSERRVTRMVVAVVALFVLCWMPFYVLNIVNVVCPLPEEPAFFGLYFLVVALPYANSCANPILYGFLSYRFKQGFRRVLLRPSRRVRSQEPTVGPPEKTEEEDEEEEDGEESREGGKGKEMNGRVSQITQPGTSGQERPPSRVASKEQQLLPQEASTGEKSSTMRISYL
# Cytochrome P450 2D6 [11] = target: T2, Cytochrome P450 2D6; experiment: Inhibition of CYP2D6 (unknown origin) preincubated for 30 mins; type: ADME
# [12] = Oral bioavailability in Sprague-Dawley rat at 10 mg/kg; type: ADME, organism-based; settings: in vivo
# [13] = Metabolic stability in human liver microsomes assessed as intrinsic clearance; type: ADME, Microsome
# [14] = Cmax in Beagle dog at 5 mg/kg, po; type: ADME, organism-based, Canis lupus familiaris; parameters: dose 5 mg/kg, route po; settings: in vivo
# [15] = AUC(0 to infinity) in Sprague-Dawley rat at 10 mg/kg, po; type: ADME, organism-based; parameters: time infinity, dose 10 mg/kg, route po; settings: in vivo
# [16] = Oral bioavailability in Beagle dog at 5 mg/kg; type: ADME, organism-based, Canis lupus familiaris; settings: in vivo
# [17] = Metabolic stability in monkey liver microsomes assessed as intrinsic clearance; type: ADME, Macaca mulatta, Microsome; settings: rhesus monkey
# [18] = Volume of distribution at steady state in Beagle dog at 2.5 mg/kg, iv; type: ADME, organism-based, Canis lupus familiaris; settings: in vivo
# [19] = AUC(0 to infinity) in Beagle dog at 5 mg/kg, po; type: ADME, organism-based, Canis lupus familiaris; parameters: time infinity, dose 5 mg/kg, route po; settings: in vivo
# Cytochrome P450 2C9 = Cytochrome P450 2C9 (Homo sapiens, UniProt P11712); experiment: Inhibition of CYP2C9 (unknown origin) by fluorescent assay; type: ADME
# [20] = Cmax in Sprague-Dawley rat at 10 mg/kg, po; type: ADME, organism-based; parameters: dose 10 mg/kg, route po; settings: in vivo
# [21] = Half life in Beagle dog at 2.5 mg/kg, iv; type: ADME, organism-based, Canis lupus familiaris; settings: in vivo
# [22] = Volume of distribution at steady state in Sprague-Dawley rat at 5 mg/kg, iv; type: ADME, organism-based; settings: in vivo
# [23] = Metabolic stability in dog liver microsomes assessed as half life; type: ADME, Canis lupus familiaris, Microsome
# [24] = Metabolic stability in human liver microsomes assessed as half life; type: ADME, Microsome
# [25] = Metabolic stability in monkey liver microsomes assessed as half life; type: ADME, Macaca mulatta, Microsome; settings: rhesus monkey
# [26] = Half life in Sprague-Dawley rat at 5 mg/kg, iv; type: ADME, organism-based; settings: in vivo
# [27] = Metabolic stability in rat liver microsomes assessed as intrinsic clearance; type: ADME, Microsome
# Cytochrome P450 2C19 = Cytochrome P450 2C19 (Homo sapiens, UniProt P33261); experiment: Inhibition of CYP2C19 (unknown origin) by fluorescent assay; type: ADME
# Cytochrome P450 2C19, sequence (P33261 whole entry): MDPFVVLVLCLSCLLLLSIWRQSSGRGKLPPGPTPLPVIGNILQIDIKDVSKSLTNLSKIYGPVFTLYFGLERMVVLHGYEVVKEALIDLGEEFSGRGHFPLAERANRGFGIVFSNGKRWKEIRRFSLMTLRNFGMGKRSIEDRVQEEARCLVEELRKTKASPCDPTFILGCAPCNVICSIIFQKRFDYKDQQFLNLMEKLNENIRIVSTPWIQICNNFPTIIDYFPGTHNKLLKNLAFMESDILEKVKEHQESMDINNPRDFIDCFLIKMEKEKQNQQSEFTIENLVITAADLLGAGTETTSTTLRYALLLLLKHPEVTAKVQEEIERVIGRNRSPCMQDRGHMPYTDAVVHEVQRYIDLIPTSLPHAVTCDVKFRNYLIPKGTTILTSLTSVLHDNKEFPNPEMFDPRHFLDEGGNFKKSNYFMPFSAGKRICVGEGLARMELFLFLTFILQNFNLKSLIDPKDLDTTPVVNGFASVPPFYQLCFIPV
# [28] = Metabolic stability in rat liver microsomes assessed as half life; type: ADME, Microsome
# Cytochrome P450 2D6 [29] = target: T2, Cytochrome P450 2D6; experiment: Time dependent inhibition of CYP2D6 (unknown origin) preincubated for 30 mins; type: ADME
# Cytochrome P450 2D6 [30] = target: T2, Cytochrome P450 2D6; experiment: Time dependent inhibition of CYP2D6 (unknown origin); type: ADME
# [31] = Volume of distribution at steady state in Sprague-Dawley rat at 2.5 mg/kg, iv; type: ADME, organism-based; settings: in vivo
# [32] = Half life in Sprague-Dawley rat at 2.5 mg/kg, iv; type: ADME, organism-based; settings: in vivo
structure (smiles),measurement,setting,value
N#Cc1cccc(-c2cncc(-c3nc4c(F)cccc4[nH]3)c2N2CC[C@H](N)C2)c1,EC50,[1],0.55 nM
Cc1cc(F)cc2[nH]c(-c3cncc(-c4cc(F)cc(C#N)c4)c3N3CC[C@H](N)C3)nc12,EC50,[1],2.1 nM
Cc1cc(F)cc(-c2cncc(-c3nc4cc(F)ccc4[nH]3)c2N2CC(CN)C2)c1,EC50,[2]; read-out: EC50,> 1000 nM
CC(N)C1CN(c2c(-c3cc(F)cc(C(F)(F)F)c3)cncc2-c2nc3c(F)cc(F)cc3[nH]2)C1 (stereo not drawn),EC50,[1],0.27 nM
N#Cc1cccc(-c2cncc(-c3nc4c(F)cc(F)cc4[nH]3)c2N2CC(CN)C2)c1,EC50,[1],2.6 nM
N#Cc1cccc(-c2cncc(-c3nc4c(F)cccc4[nH]3)c2N2CC(N)C(C(F)(F)F)C2)c1 (mixture of isomers),EC50,[1],42 nM
Cc1ccc(F)c2[nH]c(-c3cncc(-c4cc(F)cc(C#N)c4)c3N3CC[C@H](N)C3)nc12,IC50,Cytochrome P450 3A4 [3],> 10 µM
same,IC50,Cytochrome P450 2D6 [4],5.3 µM
same,IC50,Cytochrome P450 3A4 [5],> 10 µM
same,EC50,[1],0.23 nM
same,EC50,[6],3.98 nM
same,IC50,[7],280 nM
same,EC50,[8],> 1000 nM
same,pEC50,[8],< 6
same,EC50,[2]; read-out: pEC50 (converted),251 nM
same,EC50,[9],0.31 nM
same,EC50,[10],10 nM
same,IC50,Cytochrome P450 2D6 [11],4 µM
Cc1cccc2[nH]c(-c3cncc(-c4cc(F)cc(C#N)c4)c3N3CC[C@H](N)C3)nc12,bioavailability,[12],33%
same,IC50,Cytochrome P450 3A4 [3],> 10 µM
same,CLH,[13],2 mL/min/g
same,Cmax,[14],324 ng/mL
same,AUC(0-inf),[15],951 ng·h/mL
same,bioavailability,[16],55%
same,IC50,Cytochrome P450 2D6 [4],10 µM
same,CLH,[17],94.3 mL/min/g
same,IC50,Cytochrome P450 3A4 [5],> 10 µM
same,Vdss,[18],12.9 L/kg
same,AUC(0-inf),[19],4660 ng·h/mL
same,IC50,[7],2100 nM
same,IC50,Cytochrome P450 2C9,> 10 µM
same,Cmax,[20],78 ng/mL
same,t1/2,[21],16.9 min
same,Vdss,[22],17 L/kg
same,half-life,[23],347 min
same,half-life,[24],> 693 min
same,half-life,[25],15 min
same,t1/2,[26],5.3 min
same,CLH,[27],2 mL/min/g
same,IC50,Cytochrome P450 2C19,> 10 µM
same,half-life,[28],> 693 min
same,IC50,Cytochrome P450 2D6 [11],7.5 µM
NCC1CN(c2c(-c3nc4c(F)cc(F)cc4[nH]3)cncc2-c2ccccc2F)C1,EC50,[1],400 nM
C[C@]1(N)CCN(c2c(-c3cccc(C#N)c3)cncc2-c2nc3c(F)cccc3[nH]2)C1,EC50,[1],0.047 nM
Cc1cccc(-c2cncc(-c3nc4c(F)cc(F)cc4[nH]3)c2N2CC(CN)C2)c1,EC50,[1],2.3 nM
NCC1CN(c2c(-c3cccc(F)c3)cncc2-c2nc3c(F)cc(F)cc3[nH]2)C1,EC50,[1],6.1 nM
Cc1c(F)ccc2[nH]c(-c3cncc(-c4cc(F)cc(C#N)c4)c3N3CC[C@H](N)C3)nc12,EC50,[1],0.65 nM
NCC1CN(c2c(-c3cccc(Cl)c3)cncc2-c2nc3c(F)cc(F)cc3[nH]2)C1,EC50,[1],0.36 nM
N#Cc1ccc(-c2cncc(-c3nc4c(F)cccc4[nH]3)c2N2CC[C@H](N)C2)cc1F,EC50,[1],45 nM
N#Cc1cccc(-c2cncc(-c3nc4c(F)cccc4[nH]3)c2N2C[C@@H](N)[C@H](O)C2)c1 (racemic),EC50,[1],46 nM
N#Cc1cc(-c2cncc(-c3nc4c(F)cccc4[nH]3)c2N2CC[C@H](N)C2)ccc1F,EC50,[1],0.62 nM
Cc1cc(F)cc(-c2cncc(-c3nc4c(F)cc(F)cc4[nH]3)c2N2CC(CN)C2)c1,EC50,[1],2.2 nM
N#Cc1cccc(-c2cncc(-c3nc4c(F)cccc4[nH]3)c2N2CCC(N)(CO)C2)c1 (stereo not drawn),EC50,[1],1 nM
Cc1cc(F)cc(-c2cncc(-c3nc4c(C#N)cccc4[nH]3)c2N2CC(CN)C2)c1,EC50,[1],19 nM
Cc1cc(F)cc(-c2cncc(-c3nc4c(F)cc(F)cc4[nH]3)c2N2CC(C)(CN)C2)c1,EC50,[1],2.3 nM
Cc1cccc2c1nc(-c1cncc(-c3cc(F)cc(C#N)c3)c1N1CC[C@H](N)C1)n2C,EC50,[1],4.2 nM
N[C@H]1CCN(c2c(-c3cc(F)cc(Cl)c3)cncc2-c2nc3c(F)cccc3[nH]2)C1,bioavailability,[12],74%
same,IC50,Cytochrome P450 2D6 [29],90 nM
same,CLH,[13],10 mL/min/g
same,AUC(0-inf),[15],2480 ng·h/mL
same,Cmax,[20],181 ng/mL
same,IC50,Cytochrome P450 2D6 [30],400 nM
same,Vdss,[31],22 L/kg
same,t1/2,[32],7.1 min
same,CLH,[27],14 mL/min/g
CC1(N)CCN(c2c(-c3cccc(C#N)c3)cncc2-c2nc3c(F)cccc3[nH]2)C1 (stereo not drawn),EC50,[1],0.071 nM
Cc1cc(F)cc(-c2cncc(-c3nc4c(Cl)cccc4[nH]3)c2N2CC(CN)C2)c1,EC50,[1],1.2 nM
